# Paper PMC8592230 (Food Chemistry, 2021)
# Key:
# SARS-CoV-2 3CL^pro [1] = target: T1, SARS-CoV-2 3CL^pro (Severe acute respiratory syndrome coronavirus 2, UniProt P0DTD1); experiment: FRET dose-response 3CL^pro inhibition assay; assay type: biochemical
# SARS-CoV-2 3CL^pro [2] = target: T1, SARS-CoV-2 3CL^pro; experiment: Surface plasmon resonance binding to immobilised 3CL^pro
# SARS-CoV-2 3CL^pro [3] = target: T1, SARS-CoV-2 3CL^pro; experiment: Initial FRET screening for 3CL^pro inhibition at 10 µM polyphenol; assay type: biochemical; settings: 0.1 µM 3CL^pro, 16 µM FRET substrate, after 10 min
SMILES,IC50 (SARS-CoV-2 3CL^pro [1]),"SPR binding to immobilised 3CL^pro (in words) (SARS-CoV-2 3CL^pro [2]; SPR, up to 200 µM polyphenol, 25 °C)",Kd (SARS-CoV-2 3CL^pro [2]),inhibition of 3CL^pro (SARS-CoV-2 3CL^pro [3])
Oc1ccc(/C=C/c2cc(O)cc(O)c2)cc1 [Resveratrol],16.9 µM,non-specific binding,,
O=c1oc2c(O)c(O)cc3c(=O)oc4c(O)c(O)cc1c4c23 [Ellagic acid],11.8 µM,,311 ± 69 µM,
COc1cc(C(=O)O)cc(OC)c1O [Syringic acid],,,,no inhibition at all
